Laboratory results reported in patent US8349824B2, “Triazolopyridine compounds” (Hoffmann-La Roche Inc., priority 2010, dated 2013).

Experiments:
human PDE10A full length = target: T1, human PDE10A full length (Homo sapiens, UniProt Q9Y233); test: PDE10A Scintillation Proximity Assay (SPA), human PDE10A full length assay; format: biochemical; conditions: 50 nM cGMP + 50 nM [3H]-cGMP, 20 minutes at room temperature, read-out: PDE10A inhibition IC50
T1 construct: purchased Enzo Life Science, Lausen, Switzerland SE-534
Outline: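 SPA format with full-length enzyme in 20 mM HEPES pH 7.5, 10 mM MgCl2, 0.05 mg/ml BSA, substrate 50 nM cGMP plus 50 nM [3H]-cGMP. Reaction started with substrate, run 20 min at room temperature, stopped with YSi-SPA beads in zinc sulphate. IC50 from scintillation counts over an inhibitor concentration range.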

T1 sequence (Q9Y233 1-779 isoform Q9Y233-1): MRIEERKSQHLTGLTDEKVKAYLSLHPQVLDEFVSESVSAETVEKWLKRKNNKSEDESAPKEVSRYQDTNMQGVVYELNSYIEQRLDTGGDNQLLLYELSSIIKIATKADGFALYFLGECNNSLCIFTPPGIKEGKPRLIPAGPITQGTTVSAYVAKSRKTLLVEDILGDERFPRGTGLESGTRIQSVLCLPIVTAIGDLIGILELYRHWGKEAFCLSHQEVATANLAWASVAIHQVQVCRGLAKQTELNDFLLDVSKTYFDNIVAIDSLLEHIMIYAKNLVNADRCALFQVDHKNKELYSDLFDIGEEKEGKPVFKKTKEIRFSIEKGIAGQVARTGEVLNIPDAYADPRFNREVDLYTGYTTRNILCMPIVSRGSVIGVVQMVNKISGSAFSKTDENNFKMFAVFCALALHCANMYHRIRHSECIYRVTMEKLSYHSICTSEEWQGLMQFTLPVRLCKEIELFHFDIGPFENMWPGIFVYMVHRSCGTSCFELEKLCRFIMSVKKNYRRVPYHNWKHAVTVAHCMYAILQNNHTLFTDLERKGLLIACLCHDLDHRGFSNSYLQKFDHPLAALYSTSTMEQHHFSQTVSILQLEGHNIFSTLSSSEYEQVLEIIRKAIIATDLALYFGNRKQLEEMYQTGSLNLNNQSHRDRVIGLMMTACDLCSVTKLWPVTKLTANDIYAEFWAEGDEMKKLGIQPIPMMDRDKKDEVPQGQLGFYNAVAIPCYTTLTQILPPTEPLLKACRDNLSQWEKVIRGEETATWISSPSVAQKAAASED

Row | SMILES | melting point [°C] | IC50 (human PDE10A full length) [nM]
1 | CN(CCF)c1nc2cc(NC(=O)c3c(C(=O)N4CCC4)cnn3C)ccn2n1 [Example 70, 4-(Azetidine-1-carbonyl)-2-methyl-2H-pyrazole-3-carboxylic acid {2-[(2-fluoro-ethyl)-methyl-amino]-[1,2,4]triazolo[1,5-a]pyridin-7-yl}-amide] | 236 to 237 | 5.65
2 | CN(CCF)c1nc2cc(NC(=O)c3c(C(=O)N4CCOCC4)cnn3C)ccn2n1 [Example 71, 2-Methyl-4-(morpholine-4-carbonyl)-2H-pyrazole-3-carboxylic acid {2-[(2-fluoro-ethyl)-methyl-amino]-[1,2,4]triazolo[1,5-a]pyridin-7-yl}-amide] | 144 to 145 | 6.21
3 | CN(C)C(=O)c1cnn(C)c1C(=O)Nc1ccn2nc(N(C)CCF)nc2c1 [Example 72, 2-Methyl-2H-pyrazole-3,4-dicarboxylic acid 4-dimethylamide 3-({2-[(2-fluoro-ethyl)-methyl-amino]-[1,2,4]triazolo[1,5-a]pyridin-7-yl}-amide)] | 203 to 204 | 20.6
4 | CCN(C)C(=O)c1cnn(C)c1C(=O)Nc1ccn2nc(N(C)CCF)nc2c1 [Example 73, 2-Methyl-2H-pyrazole-3,4-dicarboxylic acid 4-(ethyl-methyl-amide) 3-({2-[(2-fluoro-ethyl)-methyl-amino]-[1,2,4]triazolo[1,5-a]pyridin-7-yl}-amide)] | 145 to 147 | 11.6
5 | CN(CCF)c1nc2cc(NC(=O)c3c(C(=O)N(C)C4CC4)cnn3C)ccn2n1 [Example 74, 2-Methyl-2H-pyrazole-3,4-dicarboxylic acid 4-(cyclopropyl-methyl-amide)3-({2-[(2-fluoro-ethyl)-methyl-amino]-[1,2,4]triazolo[1,5-a]pyridin-7-yl}-amide)] | 148 to 151 | 1.86
6 | COc1ccccc1-c1nc2cc(NC(=O)c3c(C(=O)N4CCC4)cnn3C)ccn2n1 [Example 102, 4-(Azetidine-1-carbonyl)-2-methyl-2H-pyrazole-3-carboxylic acid [2-(2-methoxy-phenyl)-[1,2,4]triazolo[1,5-a]pyridin-7-yl]-amide] | 258.1 | 0.65
7 | COc1ccccc1-c1nc2cc(NC(=O)c3c(C(=O)N(C)C4CC4)cnn3C)ccn2n1 [Example 103, 2-Methyl-2H-pyrazole-3,4-dicarboxylic acid 4-(cyclopropyl-methyl-amide)3-{[2-(2-methoxy-phenyl)-[1,2,4]triazolo[1,5-a]pyridin-7-yl]-amide}] | 239.2 | 0.31
8 | CN(C)C(=O)c1cnn(C)c1C(=O)Nc1ccn2nc(-c3cccc(F)c3)nc2c1 [Example 104, 2-Methyl-2H-pyrazole-3,4-dicarboxylic acid 4-dimethylamide 3-{[2-(3-fluoro-phenyl)[1,2,4]triazolo[1,5-a]pyridin-7-yl]-amide}] | 255 to 260 | 1.43
9 | Cn1ncc(C(=O)N2CCC2)c1C(=O)Nc1ccn2nc(-c3cccc(F)c3)nc2c1 [Example 105, 4-(Azetidine-1-carbonyl)-2-methyl-2H-pyrazole-3-carboxylic acid [2-(3-fluoro-phenyl)-[1,2,4]triazolo[1,5-a]pyridin-7-yl]-amide] | 232 to 236 | 1.11
10 | Cn1ncc(C(=O)N2CCOCC2)c1C(=O)Nc1ccn2nc(-c3cccc(F)c3)nc2c1 [Example 106, 2-Methyl-4-(morpholine-4-carbonyl)-2H-pyrazole-3-carboxylic acid [2-(3-fluoro-phenyl)-[1,2,4]triazolo[1,5-a]pyridin-7-yl]-amide] | 212 to 214 | 1.54
11 | COC1CN(C(=O)c2cnn(C)c2C(=O)Nc2ccn3nc(-c4cccc(F)c4)nc3c2)C1 [Example 107, 4-(3-Methoxy-azetidine-1-carbonyl)-2-methyl-2H-pyrazole-3-carboxylic acid [2-(3-fluoro-phenyl)-[1,2,4]triazolo[1,5-a]pyridin-7-yl]-amide] | 255 to 257 | 4.7
12 | CN(C)C(=O)c1cnn(C)c1C(=O)Nc1ccn2nc(-c3cccnc3F)nc2c1 [Example 109, N5-(2-(2-fluoropyridin-3-yl)-[1,2,4]triazolo[1,5-a]pyridin-7-yl)-N4,N4,1-trimethyl-1H-pyrazole-4,5-dicarboxamide] | 249 to 251 | 3.74
13 | Cn1ncc(C(=O)N2CCOCC2)c1C(=O)Nc1ccn2nc(-c3cccnc3F)nc2c1 [Example 111, 2-Methyl-4-(morpholine-4-carbonyl)-2H-pyrazole-3-carboxylic acid [2-(2-fluoro-pyridin-3-yl)-[1,2,4]triazolo[1,5-a]pyridin-7-yl]-amide] | 267 to 269 | 6.62
14 | Cn1ncc(C(=O)N2CC3(COC3)C2)c1C(=O)Nc1ccn2nc(N3CCOCC3)nc2c1 [Example 112, 2-Methyl-4-(2-oxa-6-aza-spiro[3.3]heptane-6-carbonyl)-2H-pyrazole-3-carboxylic acid (2-morpholin-4-yl-[1,2,4]triazolo[1,5-a]pyridin-7-yl)-amide] | > 300 | 57.3
15 | CN(CCF)c1nc2cc(NC(=O)c3c(C(=O)N4CC(F)C4)cnn3C)ccn2n1 [Example 114, 4-(3-Fluoro-azetidine-1-carbonyl)-2-methyl-2H-pyrazole-3-carboxylic acid {2-[(2-fluoro-ethyl)-methyl-amino]-[1,2,4]triazolo[1,5-a]pyridin-7-yl}-amide] | 233 to 236 | 5.66
16 | Cn1ncc(C(=O)N2CCOCC2)c1C(=O)Nc1ccn2nc(-c3ccnc(F)c3)nc2c1 [Example 117, N-(2-(2-fluoropyridin-4-yl)-[1,2,4]triazolo[1,5-a]pyridin-7-yl)-1-methyl-4-(morpholine-4-carbonyl)-1H-pyrazole-5-carboxamide] | > 280 | 15
17 | Cn1ncc(C(=O)N2CCC2)c1C(=O)Nc1ccn2nc(-c3ccnc(F)c3)nc2c1 [Example 118, 4-(Azetidine-1-carbonyl)-2-methyl-2H-pyrazole-3-carboxylic acid [2-(2-fluoro-pyridin-4-yl)-[1,2,4]triazolo[1,5-a]pyridin-7-yl]-amide] | > 280 | 6.78
18 | Cn1ncc(C(=O)N2CCC2)c1C(=O)Nc1ccn2nc(-c3cccc(F)n3)nc2c1 [Example 119, 4-(Azetidine-1-carbonyl)-2-methyl-2H-pyrazole-3-carboxylic acid [2-(6-fluoro-pyridin-2-yl)-[1,2,4]triazolo[1,5-a]pyridin-7-yl]-amide] | 263.9 | 1.2
19 | CN(C)C(=O)c1cnn(C)c1C(=O)Nc1ccn2nc(-c3cccc(F)n3)nc2c1 [Example 120, 2-Methyl-2H-pyrazole-3,4-dicarboxylic acid 4-dimethylamide 3-{[2-(6-fluoro-pyridin-2-yl)-[1,2,4]triazolo[1,5-a]pyridin-7-yl]-amide}] | 264.4 | 1.32
20 | CN(C(=O)c1cnn(C)c1C(=O)Nc1ccn2nc(N3CCCC3)nc2c1)C1CC1 [Example 123, 2-Methyl-2H-pyrazole-3,4-dicarboxylic acid 4-(cyclopropyl-methyl-amide)3-[(2-pyrrolidin-1-yl-[1,2,4]triazolo[1,5-a]pyridin-7-yl)-amide]] | 274.3 | 0.6
21 | CCN(C)C(=O)c1cnn(C)c1C(=O)Nc1ccn2nc(N3CCCC3)nc2c1 [Example 124, 2-Methyl-2H-pyrazole-3,4-dicarboxylic acid 4-(ethyl-methyl-amide)3-[(2-pyrrolidin-1-yl-[1,2,4]triazolo[1,5-a]pyridin-7-yl)-amide]] | 323.1 | 0.86
